Assay results from patent EP4417602A1, “SUBSTITUTED PYRAZOLE CARBOXAMIDES, SALTS THEREOF AND THEIR USE AS HERBICIDALLY ACTIVE SUBSTANCES” (Bayer AG, priority 2023, dated 2024).

Legend:
STEME [1] = assay: A. Herbicidal pre-emergence action on harmful plants (Tables A); format: in vivo, Stellaria media; conditions: visual grading after ca. 3 weeks vs untreated controls, 100% = plants have died off, 0% = as control plants
Text: (§1) Seeds of mono- and dicotyledonous weed plants were sown in plastic pots (double sowings with one species of mono- and one species of dicotyledonous weed plants per pot), in sandy loam, and covered with soil. The compounds according to the invention, formulated in the form of wettable powders (WP) or as emulsifiable concentrates (EC), were applied to the surface of the covering soil as aqueous suspension or emulsion, with the addition of 0.5% of an additive, at an application rate of 6001 of water per hectare (converted). Following treatment, the pots were placed in a greenhouse and kept under optimum growth conditions for the test plants. The visual grading of the damage to the test plants was carried out after ca. 3 weeks in comparison to untreated controls (herbicidal effect in percent (%): 100% effect = plants have died off, 0% effect = as control plants). Tables A1 to A12, below, show the effects of selected compounds of the general formula (I) according to table 1 on various harmful plants and an application rate corresponding to 1280 g/ha or below obtained by the experimental procedure mentioned above. Table A1: pre-emergence activity at 1280g/ha against ABUTH in %

DIGSA [2] = assay: as above; format: in vivo, Digitaria sanguinalis
Text: as §1

LOLRI = assay: as above; format: in vivo, Lolium rigidum; conditions: visual grading after ca. 3 weeks vs untreated controls, 100% = plants have died off, 0% = as control plants
Text: as §1

SETVI = assay: as above; format: in vivo, Setaria viridis; conditions: visual grading after ca. 3 weeks vs untreated controls, 100% = plants have died off, 0% = as control plants
Text: as §1

DIGSA [3] = assay: B. Herbicidal post-emergence action on harmful plants (Tables B); format: in vivo, Digitaria sanguinalis; conditions: application rate 1280 g/ha; Table B12a
Procedure: (§2) Seeds of mono- and dicotyledonous weed plants were placed in plastic pots in sandy loam soil (doubly sown with in each case one species of mono- or dicotyledonous weed plants per pot), covered with soil and cultivated in a greenhouse under controlled growth conditions. 2 to 3 weeks after sowing, the test plants were treated at the one-leaf stage. The compounds of the invention, formulated in the form of wettable powders (WP) or as emulsion concentrates (EC), were applied onto the green parts of the plants as aqueous suspension or emulsion with addition of 0.5% additive at a water application rate of 600 liters per hectare (converted). After the test plants had been kept in the greenhouse under optimum growth conditions for about 3 weeks, the activity of the preparations was rated visually in comparison to untreated controls. For example, 100% activity = the plants have died, 0% activity = like control plants. Tables B1 to B12, below, show the effects of selected compounds of the general formula (I) according to table 1 on various harmful plants and an application rate corresponding to 1280 g/ha or below obtained by the experimental procedure mentioned above. Table B1a: post-emergence activity at 1280g/ha against ABUTH in %

MATIN = assay: A. Herbicidal pre-emergence action on harmful plants (Tables A); format: in vivo, Matricaria inodora; conditions: visual grading after ca. 3 weeks vs untreated controls, 100% = plants have died off, 0% = as control plants
Text: as §1

ALOMY = assay: as above; format: in vivo, Alopecurus myosuroides; conditions: application rate 1280 g/ha; Table A9a
Text: as §1

ECHCG [4] = assay: as above; format: in vivo, Echinochloa crus-galli; conditions: visual grading after ca. 3 weeks vs untreated controls, 100% = plants have died off, 0% = as control plants
Text: as §1

ECHCG [5] = assay: B. Herbicidal post-emergence action on harmful plants (Tables B); format: in vivo, Echinochloa crus-galli; conditions: application rate 1280 g/ha; Table B2a
Procedure: as §2

POAAN [6] = assay: A. Herbicidal pre-emergence action on harmful plants (Tables A); format: in vivo, Poa annua
Text: as §1

AMARE = assay: B. Herbicidal post-emergence action on harmful plants (Tables B); format: in vivo, Amaranthus retroflexus; conditions: application rate 1280 g/ha; Table B8
Procedure: as §2

VERPE = assay: as above; format: in vivo, Veronica persica; conditions: application rate 1280 g/ha; Table B11a
Procedure: as §2

ABUTH = assay: as above; format: in vivo, Abutilon theophrasti; conditions: application rate 1280 g/ha; Table B1a
Procedure: as §2

POAAN [7] = assay: as above; format: in vivo, Poa annua; conditions: application rate 1280 g/ha; Table B7a
Procedure: as §2

STEME [8] = assay: as above; format: in vivo, Stellaria media; conditions: application rate 1280 g/ha; Table B6
Procedure: as §2

[9] = application rate 320 g/ha, Table A12b
[10] = application rate 1280 g/ha, Table A12a
[11] = application rate 320 g/ha, Table A7b
[12] = application rate 1280 g/ha, visual grading after ca. 3 weeks vs untreated controls, 100% = plants have died off, 0% = as control plants

SMILES | pre-emergence activity against STEME (STEME [1]; application rate 1280 g/ha) | pre-emergence activity against DIGSA (DIGSA [2]; [9]) | pre-emergence activity against DIGSA (DIGSA [2]; [10]) | pre-emergence activity against LOLRI (LOLRI; application rate 320 g/ha) | pre-emergence activity against LOLRI (LOLRI; application rate 1280 g/ha) | pre-emergence activity against SETVI (SETVI; application rate 320 g/ha) | pre-emergence activity against SETVI (SETVI; application rate 1280 g/ha) | pre-emergence activity against MATIN (MATIN; application rate 1280 g/ha) | pre-emergence activity against ALOMY (ALOMY) | pre-emergence activity against ECHCG (ECHCG [4]; application rate 1280 g/ha) | post-emergence activity against ECHCG (ECHCG [5]) | pre-emergence activity against POAAN (POAAN [6]; [11]) | pre-emergence activity against POAAN (POAAN [6]; [12]) | post-emergence activity against AMARE (AMARE) | post-emergence activity against POAAN (POAAN [7]) | pre-emergence activity against ECHCG (ECHCG [4]; application rate 320 g/ha) | also measured
C=CCn1cc(C(=O)N2CCCC2Cc2ccccc2F)c(COC)n1 (racemic) [Example I-039] | 90% | 90% | 90% | 90% | 90% | 90% | 90% | 90% | 90% | 90% | 90% | 100% | 100% |  |  |  | post-emergence activity against DIGSA (DIGSA [3]): 90%; pre-emergence activity against POAAN (POAAN [6]; application rate 80 g/ha, Table A7c): 90%
COCc1nn(CCC(OC)OC)cc1C(=O)N1CCCC1Cc1ccccc1F (racemic) [Example I-048] |  |  | 90% |  | 90% |  |  |  |  | 90% |  | 90% | 100% | 90% |  |  | 
COCc1nn(C)cc1C(=O)N1CCCC1Cc1ccccc1C (racemic) [Example I-078] | 90% | 90% | 90% | 100% | 100% | 90% | 100% | 90% | 90% | 100% | 90% | 100% | 100% |  | 90% | 90% | pre-emergence activity against STEME (STEME [1]; application rate 80 g/ha): 90%; pre-emergence activity against STEME (STEME [1]; application rate 320 g/ha): 90%; post-emergence activity against VERPE (VERPE): 90%; post-emergence activity against ABUTH (ABUTH): 90%; pre-emergence activity against MATIN (MATIN; application rate 320 g/ha): 90%
CCOCc1nn(C)cc1C(=O)N1CCC1Cc1ccccc1F (racemic) [Example I-105] |  | 100% | 100% |  | 90% |  | 100% |  |  | 100% |  |  | 100% | 90% | 90% | 90% | post-emergence activity against STEME (STEME [8]): 90%
CCOCc1nn(C)cc1C(=O)N1CCC1Cc1ccccc1Cl (racemic) [Example I-106] | 90% | 90% | 100% |  | 90% | 100% | 100% |  |  | 100% |  | 100% | 100% | 90% |  | 90% | pre-emergence activity against SETVI (SETVI; application rate 80 g/ha): 90%; pre-emergence activity against ECHCG (ECHCG [4]; application rate 80 g/ha): 90%
